Here are results for 23 compounds from patent US11884647B2, “Compounds and methods for targeting pathogenic blood vessels” (THE REGENTS OF THE UNIVERSITY OF CALIFORNIA, priority 2019, dated 2024).

Structures are written as SMILES.

One assay relates to tumor endothelial cells (LL/2 lung cancer tumor). The experiment in a line: Lung LL2 ex vivo model of tumor angiogenesis. Type of assay: cell-based, mouse. The following applies: Lung LL2 ex vivo; Conc. 40 μm; (rim). How it is done:
This example describes a procedure to prepare a primary tumor angiogenesis model for assessing the efficacy of anti-cancer candidate agents.
1. The day before the experiment, spray all necessary tools with 70% ethanol and sterilize them under UV light overnight, including blade, dissecting and micro-dissecting scissors and […]. Place 24-well dishes at 4° C. to pre-chill plates and thaw Matrigel 24 hours before tumor dissection.
2. Spray 70% ethanol on working bench. Prepare two sterile petri dishes with 10 mL sterile PBS. Steps 3 and 4 are for mouse tumor models. For fresh human tumor, directly go to step 5.
3. Euthanize the tumor-bearing mice. Spray 70% ethanol on the mouse and remove the tumor using sterilized dissecting tools (avoid the fur). Rinse the tumor in petri dish with sterile PBS to remove ethanol and fur. Transfer the tumor to a new petri dish with PBS for dissection. Place the dish on ice.
4. Using pre-chilled sterile pipet tips to seed regular Matrigel in 24 well plates on ice. Matrigel (30 μL) is dropped in the middle of each well without touching the edge of the well (avoid introducing bubbles if possible).
5. Cut the tumor in halves using the sterile blade. Identify and isolate healthy tumor tissue that is not necrotic and is within the tumor capsule. Cut the healthy tumor tissue into small pieces. For instance, a suitable size for the tumor tissue is 0.5 mm (H)×0.5 mm (L)×0.3 mm (D) with a total volume of 0.075 mm^3.
6. Gently transfer and embed each tumor piece in the Matrigel drop in the 24-well plate. Place the embedded piece in the bottom and middle of each Matrigel drop. Keep the plate on ice all the time.
7. After seeding the tumor pieces, plates are incubated in a 37° C. cell culture incubator without medium for 10 minutes in order for the Matrigel to solidify.
8. Endothelial Growth Medium (0.5 mL) is added to each well and incubated at 37° C. with 5% CO2. Wait until the new endothelial cells have grown out of the tumor or are larger than 3 mm in diameter until treatment. This usually takes 4 days for the LL2 Lewis lung cancer model and 7 days for the CT26 colon cancer model. For human tumor models, the growth time is typically 2-3 weeks, depending on the tumor type. Media is changed every 4 days during prolonged culture. Typically, when the tumor tissue grows to 2 mm in diameter, it is good for drug testing. A size of about 3 mm in diameter can make visualization easier.
9. When the assay is ready to be analyzed for cell death (e.g., 48 hours after drug addition), prepare the dye mixture by mixing 6 μL of green dye to stain live cells (5 mg/mL Fluorescein diacetate or FDA in DMSO) with 30 μL of red dye (2.5 mg/mL Propidium iodide or PI in PBS) to stain dead cells in an Eppendorf tube. The FDA dye needs to be stored frozen in a −20° C. freezer because it has a labile ester bond.
10. Add 1 μL of the dye mixture to each well of the 24-well dish. It is usually performed one 24-well dish at a time given the amount of time needed to take pictures (the green dye is not as stable in the cells in the long term).
11. Gently rock the dish a few times to mix the dye with the media in the wells and incubate the dish at 37° C. for 10 min (too long incubation can make the green signal too intense).
12. Wash each well with 0.5 mL of sterile PBS and then add 0.5 mL of phenol red free SFM to each well. Alternatively 0.5 mL of regular Endothelial Cell Growth Media can be added to each well if this well needs to be continuously maintained after the experiment.
13. Look through all wells on an inverted microscope using the 2× objective lens to observe morphological changes.
14. Taking pictures in the red and green channels would allow not only the recording of the result but also more accurate quantitation of the result. To take pictures for all the wells, first pick a well that has robust red and green signals. […]
With `CCCCCCCOc1ccc(S(=O)(=O)c2cnc3ccc(SC)cc3c2N2CCC(N3CCC(O)CC3)CC2)cc1` [compound 223, 1′-(3-((4-(heptyloxy)phenyl)sulfonyl)-6-(methylthio)quinolin-4-yl)-[1,4′-bipiperidin]-4-ol], the “Cell death (rim)” value worked out at 30%.

Staying with this assay, now noted: Lung LL2 ex vivo; Conc. 40 μm; drug treatment two days.
`CCCCOc1ccc(S(=O)(=O)c2cnc3ccc(SC)cc3c2N2CCC(N3CCN(CCO)CC3)CC2)cc1` [compound 230, 2-(4-(1-(3-((4-butoxyphenyl)sulfonyl)-6-(methylthio)quinolin-4-yl)piperidin-4-yl)piperazin-1-yl)ethan-1-ol]: the Cell death was 100%.

Staying with this assay, now noted: Mus musculus, Endothelial cell, 48 h, read-out: Cell death.
For the compound `CCCCOc1ccc(S(=O)(=O)c2cnc3ccc(C(=O)OCC)cc3c2N2CCC(N3CCSCC3)CC2)cc1` [compound 217, ethyl 3-((4-butoxyphenyl)sulfonyl)-4-(4-thiomorpholinopiperidin-1-yl)quinoline-6-carboxylate], the cytotoxicity at 40 µM was 30%.

As for `CCOC(=O)c1ccc2ncc(S(=O)(=O)c3ccc(OC)cc3)c(NN3CCN(C)CC3)c2c1` [compound 225, ethyl 3-((4-methoxyphenyl)sulfonyl)-4-((4-methylpiperazin-1-yl)amino)quinoline-6-carboxylate], the cytotoxicity at 40 µM was 40%. In the case of `COc1ccc(S(=O)(=O)c2cnc3ccc(SC)cc3c2NN2CCN(C)CC2)cc1` [compound 226, 3-((4-methoxyphenyl)sulfonyl)-N-(4-methylpiperazin-1-yl)-6-(methylthio)quinolin-4-amine], the cytotoxicity at 40 µM was 10%. With `COc1ccc(S(=O)(=O)c2cnc3ccc([S+](C)[O-])cc3c2NN2CCN(C)CC2)cc1` (centres unmarked) [compound 227, 3-((4-methoxyphenyl)sulfonyl)-N-(4-methylpiperazin-1-yl)-6-(methylsulfinyl)quinolin-4-amine], the cytotoxicity at 40 µM stood at 10%. Take `COc1ccc(S(=O)(=O)c2cnc3ccc(S(C)(=O)=O)cc3c2NN2CCN(C)CC2)cc1` [compound 228, 3-((4-methoxyphenyl)sulfonyl)-N-(4-methylpiperazin-1-yl)-6-(methylsulfonyl)quinolin-4-amine]: the cytotoxicity at 40 µM is 5%.

As to `CCCCOc1ccc(S(=O)(=O)c2cnc3ccc(SC)cc3c2N2CCC(N3CCOCC3)CC2)cc1` [compound 229, 4-(1-(3-((4-butoxyphenyl)sulfonyl)-6-(methylthio)quinolin-4-yl)piperidin-4-yl)morpholine], the cytotoxicity at 40 µM is 30%. With `CCCCOc1ccc(S(=O)(=O)c2cnc3ccc(SC)cc3c2N2CCC(N3CCC(N4CCCCC4)CC3)CC2)cc1` [compound 231, 4-([1,4′:1′,4″-terpiperidin]-1″-yl)-3-((4-butoxyphenyl)sulfonyl)-6-(methylthio)quinoline], the cytotoxicity at 40 µM was 100%. For `CCCCOc1ccc(S(=O)(=O)c2cnc3ccc(SC)cc3c2N2CCC(N3CCC(O)(c4ccccc4)CC3)CC2)cc1` [compound 232, 1′-(3-((4-butoxyphenyl)sulfonyl)-6-(methylthio)quinolin-4-yl)-4-phenyl-[1,4′-bipiperidin]-4-ol], the cytotoxicity at 40 µM turned out to be 10%. As for `CCCCOc1ccc(S(=O)(=O)c2cnc3ccc(SC)cc3c2N2CCC(N3CCN(c4ccc(F)cc4)CC3)CC2)cc1` [compound 233, 3-((4-butoxyphenyl)sulfonyl)-4-(4-(4-(4-fluorophenyl)piperazin-1-yl)piperidin-1-yl)-6-(methylthio)quinoline], the cytotoxicity at 40 µM amounted to 5%. Consider `CCCCOc1ccc(S(=O)(=O)c2cnc3ccc(SC)cc3c2N2CCC(N3CCCN(C)CC3)CC2)cc1` [compound 234, 3-((4-butoxyphenyl)sulfonyl)-4-(4-(4-methyl-1,4-diazepan-1-yl)piperidin-1-yl)-6-(methylthio)quinoline], for which the cytotoxicity at 40 µM was 100%. On the same count and under the same terms, the value for `CCCCOc1ccc(S(=O)(=O)c2cnc3ccc([S+](C)[O-])cc3c2N2CCC(N3CCOCC3)CC2)cc1` (centres unmarked) [compound 235, 4-(1-(3-((4-butoxyphenyl)sulfonyl)-6-(methylsulfinyl)quinolin-4-yl)piperidin-4-yl)morpholine] was 10%; that for `CCCCOc1ccc(S(=O)(=O)c2cnc3ccc([S+](C)[O-])cc3c2N2CCC(N3CCN(CCO)CC3)CC2)cc1` (centres unmarked) [compound 236, 2-(4-(1-(3-((4-butoxyphenyl)sulfonyl)-6-(methylsulfinyl)quinolin-4-yl)piperidin-4-yl)piperazin-1-yl)ethan-1-ol] was 5%; that for `CCCCOc1ccc(S(=O)(=O)c2cnc3ccc([S+](C)[O-])cc3c2N2CCC(N3CCC(N4CCCCC4)CC3)CC2)cc1` (centres unmarked) [compound 237, 4-([1,4′:1′,4″-terpiperidin]-1″-yl)-3-((4-butoxyphenyl)sulfonyl)-6-(methylsulfinyl)quinoline] was 100%.

Take `CCCCOc1ccc(S(=O)(=O)c2cnc3ccc([S+](C)[O-])cc3c2N2CCC(N3CCN(c4ccc(F)cc4)CC3)CC2)cc1` (centres unmarked) [compound 239, 3-((4-butoxyphenyl)sulfonyl)-4-(4-(4-(4-fluorophenyl)piperazin-1-yl)piperidin-1-yl)-6-(methylsulfinyl)quinoline]: the cytotoxicity at 40 µM was found to be 40%. On to `CCCCOc1ccc(S(=O)(=O)c2cnc3ccc([S+](C)[O-])cc3c2N2CCC(N3CCC(CO)CC3)CC2)cc1` (centres unmarked) [compound 240, (1′-(3-((4-butoxyphenyl)sulfonyl)-6-(methylsulfinyl)quinolin-4-yl)-[1,4′-bipiperidin]-4-yl)methanol], for which the cytotoxicity at 40 µM is 30%. Consider `CCN(CC)CCOc1ccc(S(=O)(=O)c2cnc3ccc(SC)cc3c2N2CCCN(C)CC2)cc1` [compound 242, N,N-diethyl-2-(4-((4-(4-methyl-1,4-diazepan-1-yl)-6-(methylthio)quinolin-3-yl)sulfonyl)phenoxy)ethan-1-amine], for which the cytotoxicity at 40 µM is 30%. For the compound `CCCCOc1ccc(S(=O)(=O)c2cnc3ccc(SC)cc3c2N2CCC(N3CCSCC3)CC2)cc1` [compound 243, 4-(1-(3-((4-butoxyphenyl)sulfonyl)-6-(methylthio)quinolin-4-yl)piperidin-4-yl)thiomorpholine], the cytotoxicity at 40 µM is 20%. The same measure, in the same setting: as for `CCCCOc1ccc(S(=O)(=O)c2cnc3ccc([S+](C)[O-])cc3c2N2CCC(N3CCSCC3)CC2)cc1` (centres unmarked) [compound 245, 4-(1-(3-((4-butoxyphenyl)sulfonyl)-6-(methylsulfinyl)quinolin-4-yl)piperidin-4-yl)thiomorpholine], the figure is 40%.

As to `CCCCCCCOc1ccc(S(=O)(=O)c2cnc3ccc(SC)cc3c2N2CCC(N3CCN(C)CC3)CC2)cc1` [compound 246, 3-((4-(heptyloxy)phenyl)sulfonyl)-4-(4-(4-methylpiperazin-1-yl)piperidin-1-yl)-6-(methylthio)quinoline], the cytotoxicity at 20 µM was found to be 95%. Consider `CCCCCCCOc1ccc(S(=O)(=O)c2cnc3ccc(SC)cc3c2N2CCC(N3CCCC(O)C3)CC2)cc1` (centres unmarked) [compound 247, 1′-(3-((4-(heptyloxy)phenyl)sulfonyl)-6-(methylthio)quinolin-4-yl)-[1,4′-bipiperidin]-3-ol], for which the cytotoxicity at 20 µM was found to be 60%. Regarding `CCCCCCCOc1ccc(S(=O)(=O)c2cnc3ccc(SC)cc3c2N2CCCN(CCN3CCCCC3)CC2)cc1` [compound 248, 3-((4-(heptyloxy)phenyl)sulfonyl)-6-(methylthio)-4-(4-(2-(piperidin-1-yl)ethyl)-1,4-diazepan-1-yl)quinoline], the cytotoxicity at 20 µM came out at 60%.
